From publication PMC6876247 (Proceedings of the National Academy of Sciences of the …, 2019)
pEC50: −log10 of the molar value.

Molecular target: T1, GPR43 (Mus musculus, UniProt Q8VCK6)
T1 sequence (Q8VCK6 1-330): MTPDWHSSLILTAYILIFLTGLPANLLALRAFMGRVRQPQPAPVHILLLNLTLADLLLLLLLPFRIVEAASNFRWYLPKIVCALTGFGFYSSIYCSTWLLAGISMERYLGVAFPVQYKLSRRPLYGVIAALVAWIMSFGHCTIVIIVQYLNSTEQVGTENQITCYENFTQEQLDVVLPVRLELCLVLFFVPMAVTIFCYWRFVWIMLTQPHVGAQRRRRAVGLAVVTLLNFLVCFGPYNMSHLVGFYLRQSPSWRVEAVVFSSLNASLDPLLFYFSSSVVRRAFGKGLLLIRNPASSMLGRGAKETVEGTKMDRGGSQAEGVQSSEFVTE
Type: cell-based

pEC50: 3.12
Structure (SMILES): CC(=O)CC(=O)O [acetoacetate]
